Assay results reported in the supplement of paper PMC10307832.

Experiments:
Assay in all cases: relative viability (nuclei count vs DMSO), 5 days (fraction); higher = more cells survive
IPA-3 + Foretinib = compound: C1=CC=C2C(=C1)C=CC(=C2SSC3=C(C=CC4=CC=CC=C43)O)O [IPA-3] + COc1cc2c(Oc3ccc(NC(=O)C4(C(=O)Nc5ccc(F)cc5)CC4)cc3F)ccnc2cc1OCCCN1CCOCC1 [Foretinib] (partner 0.25 µM)
Method in brief: (§1)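 Medians of duplicate plates are given as relative viability. That measure is the nuclei count in treated wells divided by the count in vehicle wells. Counts were taken on 4× images of lung cancer cell lines in 1536-well plates, 5 days after pin-tool dosing the day after seeding with one drug alone or a fixed anchor-drug dose plus five library-drug doses (not always all listed) in √10 steps.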

IPA-3 + Bortezomib = compound: C1=CC=C2C(=C1)C=CC(=C2SSC3=C(C=CC4=CC=CC=C43)O)O [IPA-3] + CC(C)C[C@H](NC(=O)[C@H](Cc1ccccc1)NC(=O)c1cnccn1)B(O)O [Bortezomib] (partner 0.002 µM)
Method in brief: as §1

RAF265 + Vorinostat = compound: Cn1c(Nc2ccc(C(F)(F)F)cc2)nc2cc(Oc3ccnc(-c4ncc(C(F)(F)F)[nH]4)c3)ccc21 [RAF265] + O=C(CCCCCCC(=O)Nc1ccccc1)NO [Vorinostat] (partner 1 µM)
Method in brief: as §1

Doramapimod + Tozasertib = compound: Cc1ccc(-n2nc(C(C)(C)C)cc2NC(=O)Nc2ccc(OCCN3CCOCC3)c3ccccc23)cc1 [Doramapimod] + Cc1cc(Nc2cc(N3CCN(C)CC3)nc(Sc3ccc(NC(=O)C4CC4)cc3)n2)n[nH]1 [Tozasertib] (partner 0.1 µM)
Method in brief: as §1

Row | Cell Line | relative viability (IPA-3 + Foretinib; first compound 0.2 µM) | relative viability (IPA-3 + Foretinib; first compound 0.6325 µM) | relative viability (IPA-3 + Foretinib; first compound 2 µM) | relative viability (IPA-3 + Foretinib; first compound 6.325 µM) | relative viability (IPA-3 + Foretinib; first compound 20 µM) | relative viability (IPA-3 + Bortezomib; first compound 0.2 µM) | relative viability (IPA-3 + Bortezomib; first compound 0.6325 µM) | relative viability (IPA-3 + Bortezomib; first compound 2 µM) | relative viability (IPA-3 + Bortezomib; first compound 6.325 µM) | relative viability (IPA-3 + Bortezomib; first compound 20 µM) | relative viability (RAF265 + Vorinostat; first compound 0.01 µM) | relative viability (RAF265 + Vorinostat; first compound 0.03162 µM) | relative viability (RAF265 + Vorinostat; first compound 0.1 µM) | relative viability (RAF265 + Vorinostat; first compound 0.3162 µM) | relative viability (RAF265 + Vorinostat; first compound 1 µM) | relative viability (Doramapimod + Tozasertib; first compound 0.02 µM) | relative viability (Doramapimod + Tozasertib; first compound 0.06325 µM) | relative viability (Doramapimod + Tozasertib; first compound 0.2 µM) | relative viability (Doramapimod + Tozasertib; first compound 0.6325 µM) | relative viability (Doramapimod + Tozasertib; first compound 2 µM)
1 | NCI-H460 | 1.12 | 0.924 | 0.851 | 0.929 | 0.931 | 1.64 | 1 | 1.24 | 1.07 | 1.05 | 0.756 | 0.692 | 0.671 | 0.668 | 0.642 | 0.455 | 0.517 | 0.49 | 0.673 | 0.372
2 | NCI-H520 | 0.885 | 0.757 | 0.743 | 0.613 | 0.837 | 1.13 | 0.769 | 0.536 | 0.684 | 0.487 | 0.777 | 0.579 | 0.688 | 0.572 | 0.55 | 0.483 | 0.441 | 0.402 | 0.42 | 0.382
3 | NCI-H596 | 0.691 | 0.945 | 0.923 | 0.881 | 1.06 | 1.33 | 1.12 | 1.18 | 0.914 | 1.17 | 0.809 | 0.642 | 0.642 | 0.589 | 0.522 | 0.939 | 0.862 | 1.11 | 0.982 | 0.883
4 | NCI-H647 | 1.36 | 1.26 | 1.08 | 1.03 | 1.12 | 1.77 | 0.939 | 0.654 | 0.614 | 0.121 | 0.627 | 0.411 | 0.585 | 0.397 | 0.356 | 0.317 | 0.288 | 0.328 | 0.24 | 0.327
5 | NCI-H650 | 1.11 | 0.97 | 1.11 | 1.03 | 1.2 | 0.972 | 0.83 | 0.798 | 0.858 | 1.22 | 0.442 | 0.418 | 0.42 | 0.277 | 0.232 | 0.757 | 0.823 | 0.804 | 0.798 | 0.654
6 | NCI-H661 | 1.01 | 0.988 | 0.995 | 0.964 | 0.997 | 0.972 | 0.779 | 0.915 | 0.967 | 0.897 | 0.834 | 0.698 | 0.639 | 0.554 | 0.568 | 0.36 | 0.353 | 0.342 | 0.366 | 0.346
7 | NCI-H727 | 0.898 | 0.81 | 1.17 | 0.615 | 0.73 | 0.841 | 0.788 | 0.857 | 0.866 | 1.12 | 1.26 | 1.16 | 1.03 | 1.24 | 0.862 | 0.633 | 0.644 | 0.559 | 0.702 | 0.536
8 | NCI-H838 | 1.22 | 1 | 1.1 | 1.03 | 1.14 | 1.89 | 0.847 | 0.667 | 1.03 | 0.815 | 0.735 | 0.716 | 0.72 | 0.691 | 0.632 | 0.299 | 0.27 | 0.285 | 0.253 | 0.257
